Source: ChEMBL document CHEMBL1147794, “Synthesis and evaluation of two 18F-labeled imidazo[1,2-a]pyridine analogues as potential agents for imaging beta-amyloid in Alzheimer's disease” (Bioorg Med Chem Lett, 2006)
The source made the active and inactive calls. No cut-off for these calls is given here.

Tests used:
[1] = Lipophilicity, Log P of the compound; format: physicochemical; conditions: octanol/water
[2] = target: Amyloid-beta precursor protein (Homo sapiens, UniProt P05067); assay: Displacement of [125I]IMPY from beta amyloid in human AD cortical tissue
Rhesus monkey [3] = assay: Penetration into iv dosed rhesus monkey blood-brain barrier after 9 mins; format: functional, organism-based; conditions: Macaca mulatta, tested as the 18F-labelled form
Rhesus monkey [4] = assay: Uptake in iv dosed rhesus monkey skull; format: functional, organism-based; conditions: Macaca mulatta; tested as the 18F-labelled form

Amyloid-beta precursor protein, sequence (P05067 whole entry): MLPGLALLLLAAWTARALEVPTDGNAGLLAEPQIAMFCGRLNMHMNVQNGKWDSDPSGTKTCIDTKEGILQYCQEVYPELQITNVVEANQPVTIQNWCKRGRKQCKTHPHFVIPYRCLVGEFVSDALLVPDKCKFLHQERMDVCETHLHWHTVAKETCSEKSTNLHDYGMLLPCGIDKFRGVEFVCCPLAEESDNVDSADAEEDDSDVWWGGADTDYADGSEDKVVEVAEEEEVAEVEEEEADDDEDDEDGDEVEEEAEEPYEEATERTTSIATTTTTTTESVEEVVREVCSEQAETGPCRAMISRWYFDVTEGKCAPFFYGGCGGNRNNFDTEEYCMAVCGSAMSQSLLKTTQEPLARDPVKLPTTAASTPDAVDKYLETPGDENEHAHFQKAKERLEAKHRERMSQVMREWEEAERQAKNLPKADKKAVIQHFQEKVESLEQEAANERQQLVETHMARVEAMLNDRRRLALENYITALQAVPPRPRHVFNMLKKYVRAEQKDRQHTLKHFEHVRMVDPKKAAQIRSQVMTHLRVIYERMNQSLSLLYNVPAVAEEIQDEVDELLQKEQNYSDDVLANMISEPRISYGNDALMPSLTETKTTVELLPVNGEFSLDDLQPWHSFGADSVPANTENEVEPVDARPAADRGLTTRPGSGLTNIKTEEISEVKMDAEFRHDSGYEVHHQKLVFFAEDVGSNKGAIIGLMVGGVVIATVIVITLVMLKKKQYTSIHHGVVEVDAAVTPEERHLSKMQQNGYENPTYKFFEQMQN

CN(C)c1ccc(-c2cn3cc(I)ccc3n2)cc1 gave a logP [1] of 3.58.
In the case of CN(C)c1ccc(-c2cn3cc(CCF)ccc3n2)cc1, the Ki [2] is reported as 177 nM and the logP [1] is reported as 2.42.
With CN(C)c1ccc(-c2cn3cc(CCCF)ccc3n2)cc1 the Ki [2] was 48.3 nM, the logP [1] was 2.84 and the Activity (Rhesus monkey [3]) was “Active”. The Activity (Rhesus monkey [4]) was “inactive”.
